Test results as given in US8603966B2, “Amino acid-based compounds, their methods of use, and methods of screening” (The Administrators of the Tulane Educational Fund, priority 2009, dated 2013).
No end group written: not given here.

Key:
[1] = High throughput screen: Tb3+/DPA leakage from liposomes; details: labeled peptide:lipid 1:300; % of Tb3+ released after 60 minutes vs Triton-X 100 solubilized control (100% leakage)
Procedure: (§1) High throughput screening: For high throughput screening, 100 mM lipid bilayer vesicles were prepared by extrusion in the presence of 50 mM Tb^3+/citrate and 10 mg/mL chymotrypsin. The external Tb^3+/citrate and chymotrypsin were removed by gel filtration. To make the screening solution, 50 μM dipicolinic acid (DPA) and 1 μM α 1-antitrypsin were added to the external medium. The lipid composition was about 90% palmitoyloleoylphostadidylcholine (POPC) and about 10% palmitoyloleoyl phostadidylglycerol (POPG).
(§2) The combinatorial labeled peptide library was screened to identify and measure properties of translocation and leakage (e.g., pore-formation). Beads from the synthesis were exposed to longwave UV to cleave the peptide from the resin. The reaction added an amine group to the labeled peptide at the site of cleavage, yielding a Gln residue. Beads were then separated into individual wells of a multiwell plate and the peptides were extracted into 5 μl of dry dimethylsulfoxide overnight. This cleaved approximately 0.75 nmol of labeled peptide from each bead, about half of the total labeled peptide on the bead. A chymotrypsin cleavage site was incorporated into the labeled peptides' design (FIG. 1) and when hydrolysis occurs the AMC fluorophore is released. The spectra of the free AMC fluorophore is red-shifted as compared to that of the peptide-AMC conjugate (FIG. 2). When a labeled peptide translocates, the chymotrypsin inside the vesicle catalyzes the hydrolysis of the peptide bond contributed by the AMC moiety (FIG. 3B). Translocation was monitored by the rate of accumulation of free AMC. In the case of leakage, interaction of the lanthanide metal terbium III (Tb^3+) with the aromatic chelator dipiccolinic acid (DPA) creates a complex that is fluorescent at low μM concentrations (FIG. 3A). By entrapping Tb^3+ and chymotrypsin inside the liposomes and then adding dipiccolinic acid and a chymotrypsin inhibitor to the external medium, a visual reporter system for translocation with and without membrane leakage was created that can detect as little as 5 pmol of labeled peptide.
(§3) To screen for solubility, the labeled peptide DMSO solution was diluted and incubated for 30 minutes before adding the screening solution. Free-AMC fluorescence was monitored at 450 nm emission (350 nm excitation) for 30 minutes and then the wells were read at 460 nm emission (280 nm excitation) for Tb^3+/DPA complex formation. Wells with the highest free AMC accumulation and/or Tb^3+/DPA fluorescence were sent to the Michigan State University Protein Core Facility for sequencing.
(§4) The screen was performed at a labeled peptide to lipid ratio of 1:300. […] In FIG. 4, the oval labeled “Leakage” indicates labeled peptides that show mostly leakage with a minimum of the relative rate of free AMC production. The oval labeled “Translocation” indicates labeled peptides that show a higher relative rate of free AMC production with a minimum of leakage. Roughly 24,000 beads were screened at 1:300 labeled peptide:lipid, a sequence coverage space of 90%. The labeled peptides indicating the highest translocation and highest % leakage were identified by Edman sequencing from the beads.
(§5) Free-AMC fluorescence was monitored at 450 nm emission (350 nm excitation) for 30 minutes and then the wells were read at 460 nm emission (280 nm excitation) for Tb^3+/DPA complex formation. Percent leakage is the % of Tb^3+ released from lipid vesicles after 60 minutes, compared to a Triton-X 100 detergent-solubilized control (100% leakage). […] Free AMC was determined in real time by monitoring the fluorescence of free AMC after vesicle addition using a BioTek Synergy II fluorescence plate reader. The two assays were performed on the same samples.

[2] = High throughput screen: translocation into liposomes (free AMC production by entrapped chymotrypsin); details: labeled peptide:lipid 1:300; rate divided by rate in chymotrypsin solution without inhibitor and liposomes
Procedure: as §1, §2, §3, §4, §5

[3] = system: Chinese Hamster Ovary (CHO) cells; assay: Cell penetration by laser scanning confocal fluorescence microscopy; assay type: cell-based; details: for Cell Penetrating Half-time: SD ±10 min
Procedure: (§6) Laser Scanning Confocal Fluorescence Microscopy: Some translocating peptides were synthesized and labeled with the fluorescent dye TAMRA on either their amino terminus (N-labeled) or on a C-terminal cysteine residue (C-labeled). Live Chinese Hamster Ovary (CHO) cells were used to assess the ability of the labeled peptides to translocate across living cell membrane into the cells without causing toxicity.
CHO cells were incubated with peptide that was labeled on a C-terminal cysteine residue with the red fluorescent dye TAMRA. Cells and labeled peptide were incubated for 10 minutes in minimal media at 37° C. Cells were then washed to remove labeled peptide from the solution. The minimal media was replaced and 1 μM NBD (7-nitrobenz-2-oxa-1,3-diazol-4-yl) labeled lyso-phosphatidylthanolamine was added to the cells to label the plasma membrane. Labeled peptide concentrations for the panels are: A) 0 μM, B) 2 μM, C) 5 μM, and D) 10 μM. The scale bar represents 50 μm.
Panels A-G of FIG. 6 show representative CFM images monitoring the translocation of a labeled peptide with SEQ ID NO. 04 (synthesized with all D-amino acids for the chiral amino acids) in 10 minute intervals. CHO cells were incubated with the TAMRA-labeled peptide in minimal media and monitored over time at 25° C. without washing. The incubation times for the panels are: A) 5 min., B) 15 min., C) 25 min., D) 35 min., E) 45 min., F) 55 min., and G) 65 min. […] The scale bar represents 50 μm.
(§7) In this experiment, the externally added labeled peptide has not been washed away so the solution itself is fluorescent due to added TAMRA-labeled peptide. The black silhouettes in Panel A show the location of cells; before labeled-peptide entry, there is no fluorescence inside the cells.
All labeled peptides tested are able to translocate across living cell membranes and carry the large polar dye molecule TAMRA with them into the cell. Cell penetration was assessed by measuring TAMRA intensity inside CHO cells during incubation with the peptides in Table 4 and comparing intensity inside the cells with the external solution. Incubations were done at either 25° C. or 37° C., at concentrations listed. The half-times for penetration were determined, as shown in Table 5; the half-times have standard deviations of ±10 min. Based on final intensities inside the cells, all labeled peptides tested have similar cell penetrating activity at concentrations tested and at the temperatures tested. Toxicity was determined using the same conditions (e.g., solution and temperature) and concentrations as the cell penetration experiments. Toxicity was assessed by imaging at least 100 cells and counting cells with altered cell morphology, loss of confluence, or loss of adherence to substrate. In some experiments, the non-membrane permeable DNA dye SYTOX green was used to assess membrane integrity. In most cases, no measurable increase in toxicity or membrane integrity over control samples was detectable; this is indicated by the <5% in Table 5.

[4] = system: Chinese Hamster Ovary (CHO) cells; assay type: cell-based
Text: as §6, §7
All labeled peptides tested are able to translocate across living cell membranes and carry the large polar dye molecule TAMRA with them into the cell. Cell penetration was assessed by measuring TAMRA intensity inside CHO cells during incubation with the peptides in Table 4 and comparing intensity inside the cells with the external solution. Incubations were done at either 25° C. or 37° C., at concentrations listed. The half-times for penetration were determined, as shown in Table 5; the half-times have standard deviations of ±10 min. […] Toxicity was determined using the same conditions (e.g., solution and temperature) and concentrations as the cell penetration experiments. […]

Substance | % Leakage [1] [%] | Relative Rate of Free AMC Production [2] | also measured
PLILLRLLRGQF [SEQ ID NO: 03] | 1.7 | 2.1 | –
PRIYLRLLLGQF [SEQ ID NO: 14] | 82 | 1.1 | –
RLIYLRLLRGQF [SEQ ID NO: 01] | 24 | 3.4 | –
Arg-Arg-Ile-Leu-Leu-Gln-Leu-Leu-Arg-Gly-Gln-Phe (RRILLQLLRGQF; not fully specified (C-terminus); printed as Arg-Arg-Ile-Leu-Leu-Gln-Leu-Leu-Arg-Gly-Gln-Phe) [SEQ ID NO: 10 (C-labeled), peptide labeled with the dye TAMRA on a C-terminal cysteine] | – | – | Cell Penetrating Half-time ([3]; 25° C., 1.7-10 μM): 15 min
PLIYPFLRLGQF [SEQ ID NO: 09] | −0.2 | 1.7 | –
PKILLFKLLGQF [SEQ ID NO: 12] | 1.6 | 1.7 | –
PLRLLRLLRGQF [SEQ ID NO: 11] | 5.2 | 2.0 | –
Arg-Lys-Gly-Leu-Leu-Gln-Leu-Leu-Leu-Gly-Gln-Phe (RKGLLQLLLGQF; not fully specified (C-terminus); printed as Arg-Lys-Gly-Leu-Leu-Gln-Leu-Leu-Leu-Gly-Gln-Phe) [SEQ ID NO: 18 (C- labeled), peptide labeled with the dye TAMRA on a C-terminal cysteine] | – | – | Cell Penetrating Half-time ([3]; 37° C., 1.7-5 μM): <30 min
RLIRLFLLRGQF [SEQ ID NO: 08] | 5.0 | 2.1 | –
PRKLLQLLLGQF [SEQ ID NO: 13] | 86 | 0.6 | –
RLILRQLLRGQF [SEQ ID NO: 17] | 115 | 1.6 | –
PLGYLFLLRGQF [SEQ ID NO: 05] | 6.0 | 1.9 | –
RRILLQLLRGQF [SEQ ID NO: 10] | 26 | 2.3 | –
PRILLRLLLGQF [SEQ ID NO: 16] | 89 | 1.0 | –
PKQLLRLLLGQF [SEQ ID NO: 20] | 90 | 0.4 | –
Pro-Leu-Ile-Tyr-Leu-Arg-Leu-Leu-Arg-Gly-Gln-Phe [SEQ ID NO: 04 (C-labeled)] | – | – | Cell Penetrating Half-time ([3]; 37° C., 1.7-10 μM): 20 min
RLILLFRRLGQF [SEQ ID NO: 06] | 7.2 | 2.1 | –
RKRLLQLLLGQF [SEQ ID NO: 21] | 84 | 0.7 | –
RKGLLQLLLGQF [SEQ ID NO: 18] | 92 | 0.3 | –
RKILLRLLRGQF [SEQ ID NO: 02] | −3.0 | 1.6 | –
RRILLQLLLGQF [SEQ ID NO: 15] | 105 | 0.0 | –
RLILRQLLLGQF [SEQ ID NO: 19] | 102 | 1.6 | –
Arg-Arg-Ile-Leu-Leu-Gln-Leu-Leu-Leu-Gly-Gln-Phe (RRILLQLLLGQF; not fully specified (C-terminus); printed as Arg-Arg-Ile-Leu-Leu-Gln-Leu-Leu-Leu-Gly-Gln-Phe) [SEQ ID NO: 15 (C-labeled), peptide labeled with the dye TAMRA on a C-terminal cysteine] | – | – | Cell Penetrating Half-time ([3]; 37° C., 1.7-5 μM): <30 min
PLRLRFLLRGQF [SEQ ID NO: 07] | −4.5 | 1.6 | –
Pro-Leu-Ile-Tyr-Leu-Arg-Leu-Leu-Arg-Gly-Gln-Phe [SEQ ID NO: 04] | 2.8 | 2.3 | –
Pro-Leu-Ile-Leu-Leu-Arg-Leu-Leu-Arg-Gly-Gln-Phe (PLILLRLLRGQF; not fully specified (C-terminus); printed as Pro-Leu-Ile-Leu-Leu-Arg-Leu-Leu-Arg-Gly-Gln-Phe) [SEQ ID NO: 03 (C-labeled), peptide labeled with the dye TAMRA on a C-terminal cysteine] | – | – | Cell Penetrating Half-time ([3]; 37° C., 1.7-5 μM): <30 min
Pro-Leu-Ile-Tyr-Leu-Arg-Leu-Leu-Arg-Gly-Gln-Phe | – | – | half-time for cell entry ([3]; FIG. 6, 25° C., minimal media, without washing): 20 to 30 min; time at which cell penetration occurs ([3]; FIG. 6, 25° C., without washing): within a few minutes; toxicity (shape and coherence of the cells) [4]: toxicity is minimal
